The values below come from US20120022149A1, “PHARMACEUTICAL COMPOSITION WITH ENHANCED SOLUBILITY CHARACTERISTICS” (priority 2010, published 2012).

This data set can be described thus: Solubility of olopatadine in PEG 6000 and/or PVP vehicles. The class given is physicochemical. To be noted: Table 1 and FIG. 1.

On to `CN(C)CC/C=C1/c2ccccc2COc2ccc(CC(=O)O)cc21` [olopatadine], for which the “solubility of olopatadine relative to the concentration of PEG6000” value is on record as “essentially linear”.
